In PubChem BioAssay AID394 one finds Tm shift data, which are given here for 5 compounds.

The target of the assay is Tyrosine-protein phosphatase non-receptor type 14 (Homo sapiens) (UniProt Q15678). Briefly: compound-induced PTPN14 thermal stabilization – biophysical, human, DSF, SYPRO orange (AID 394). The settings on record: recombinant PTPN14, DSF thermal shift, at 10 µM, protein 2 µM, buffer 10 mM HEPES, pH 7.5, NaCl 150 mM, stronger effect = higher value.
Sequence of Tyrosine-protein phosphatase non-receptor type 14 (Homo sapiens) (Q15678 whole entry, looked up): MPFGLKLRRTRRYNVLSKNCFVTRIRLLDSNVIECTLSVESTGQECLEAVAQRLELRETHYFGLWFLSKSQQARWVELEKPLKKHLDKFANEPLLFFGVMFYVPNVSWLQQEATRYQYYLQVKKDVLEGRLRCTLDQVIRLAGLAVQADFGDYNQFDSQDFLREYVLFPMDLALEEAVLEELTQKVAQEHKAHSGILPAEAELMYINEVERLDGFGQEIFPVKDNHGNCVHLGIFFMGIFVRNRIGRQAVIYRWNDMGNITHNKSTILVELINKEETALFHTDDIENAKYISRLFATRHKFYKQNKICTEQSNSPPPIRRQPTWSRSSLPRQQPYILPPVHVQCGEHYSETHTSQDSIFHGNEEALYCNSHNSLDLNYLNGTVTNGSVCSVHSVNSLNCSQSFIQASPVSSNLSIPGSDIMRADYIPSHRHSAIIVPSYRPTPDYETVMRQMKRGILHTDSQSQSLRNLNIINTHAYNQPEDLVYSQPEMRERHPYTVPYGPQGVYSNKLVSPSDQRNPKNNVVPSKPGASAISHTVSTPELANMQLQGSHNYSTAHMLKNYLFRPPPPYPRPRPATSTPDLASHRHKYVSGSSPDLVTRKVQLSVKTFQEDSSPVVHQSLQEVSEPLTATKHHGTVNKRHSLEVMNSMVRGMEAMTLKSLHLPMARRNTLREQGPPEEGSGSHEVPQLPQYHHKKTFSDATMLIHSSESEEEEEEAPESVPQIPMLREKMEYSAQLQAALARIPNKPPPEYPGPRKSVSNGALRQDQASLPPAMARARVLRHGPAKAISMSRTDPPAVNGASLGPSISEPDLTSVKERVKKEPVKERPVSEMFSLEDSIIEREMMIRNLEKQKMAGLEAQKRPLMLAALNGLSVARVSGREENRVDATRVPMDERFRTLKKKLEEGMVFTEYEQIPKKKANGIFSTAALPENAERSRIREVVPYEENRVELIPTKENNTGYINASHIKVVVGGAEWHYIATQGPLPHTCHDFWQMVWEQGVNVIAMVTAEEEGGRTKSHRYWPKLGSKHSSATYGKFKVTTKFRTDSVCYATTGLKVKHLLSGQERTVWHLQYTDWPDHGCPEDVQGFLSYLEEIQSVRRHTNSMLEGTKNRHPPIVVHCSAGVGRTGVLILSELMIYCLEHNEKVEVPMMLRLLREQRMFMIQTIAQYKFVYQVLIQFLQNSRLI

Turning to `O=C(O)c1ccc(O)cn1.OO.[O]=[V]`, the Tm shift is 5.95 Celsius. As to `OO.OO.[K+].[O]=[V].c1ccc(-c2ccccn2)nc1`, the Tm shift was 4.81 Celsius. In the case of `O=C(O)c1ccc([O-])cn1.OO.OO.[K+].[K+].[O]=[V]`, the Tm shift is 4.45 Celsius. On to `OO.OO.[K+].[O]=[V].c1cnc2c(c1)ccc1cccnc12`, for which the Tm shift was 5.88 Celsius.

On to `O=C([O-])c1ccccn1.OO.OO.[K+].[K+].[O]=[V]`, for which the Tm shift (DTT 2000 µM, with dithiothreitol) was 2.3 Celsius.
